Test results published in patent US20230242499A1, “COMPOUND OR SALT THEREOF, COMPOSITION, CHEMILU[…], METHOD FOR MEASURING CHEMILU[…], REAGENT, REAGENT KIT, AND METHOD FOR ASSAYING ANALYTE” (SYSMEX CORPORATION, priority 2022, published 2023).

Legend:
[1] = test system: alkaline phosphatase; test: Test Example 2: chemiluminescence intensity versus amount of alkaline phosphatase, limit of detection; format: biochemical; details: 42° C., 5 minutes incubation
Experimental: A solution of 1,2-dioxetane derivative (Examples 1 to 4) in dimethyl sulfoxide was added to 155 μL of the reaction liquid, and the mixture was kept at 42° C. for one hour. Twenty μL of a solution containing alkaline phosphatase was added, the mixture was incubated at 42° C. for 5 minutes, and then the chemiluminescence intensity was measured. The reaction liquid used herein was a 2: 1 mixture of a buffer solution (pH 9.6) that contains magnesium chloride and Sapphire-II™ Enhancer (from Thermo Fischer Scientific Inc.), and HISCL R4 reagent (from Sysmex Corporation). In Example 3, two types of sample were prepared, a sample (S(+)) with Sapphire-II™ Enhancer added thereto, and a sample […] without such additive.

[2] = Test Example 3: maximum emission wavelength by spectrofluorometer; format: physicochemical; details: after several hours under the conditions of Test Example 1; spectrofluorometer F-7000
Experimental: After a lapse of several hours under the conditions of Test Example 1, the samples were measured with use of a spectrofluorometer F-7000 (from Hitachi High-Tech Science Corporation), to find maximum emission wavelength.

[3] = buffer pH 9.6 with magnesium chloride and Sapphire-II Enhancer added (S (+)), HISCL R4 reagent

SMILES | LOD (zmol) ([1]; Sapphire-II Enhancer not added (S (−))) | LOD (zmol) [1, 3] [zmol] | Maximum emission wavelength (nm) [2] [nm]
COC1(c2ccc(C#CC(=O)O)c(OP(=O)(O)O)c2)OOC12C1CC3CC2CC(Cl)(C3)C1 (stereo not drawn) [Example 3] | 1 | 7 | 475
C#Cc1ccc(C2(OC)OOC23C2CC4CC3CC(Cl)(C4)C2)cc1OP(=O)(O)O (stereo not drawn) [Example 2] |  | 4 | 468
COC1(c2ccc(-c3ccc(C(=O)O)cc3)c(OP(=O)(O)O)c2)OOC12C1CC3CC2CC(Cl)(C3)C1 (stereo not drawn) [Example 4] |  | 100 | 493
COC1(c2ccc(C#Cc3ccc(C(=O)O)cc3)c(OP(=O)(O)O)c2)OOC12C1CC3CC2CC(Cl)(C3)C1 (stereo not drawn) [Example 1] |  | 10 | 498
